# In patent US20230143604A1, “QW DOSING OF GIP RECEPTOR AGONIST PEPTIDE COMPOUNDS AND USES THEREOF” (TAKEDA PHARMACEUTICAL COMPANY LIMITED, priority 2020, published 2023):
# Starred links: 1 amine or outer side, 2 acyl side, 3 side chain; linkers in the order of their positions; H or OH if unused. Non-standard residues stand in square brackets, D forms with d. Residues, ends and D or L forms follow the SMILES beside them. Groups on a side chain read outwards from the residue. *: point of attachment. C18 diacid = O=C(O)CCCCCCCCCCCCCCCCC(=O)*; γGlu = O=C(O)[C@H](CCC(=O)[*:2])N[*:1]; AEEA = NCCOCCOCC(=O)O; Aib = CC(C)(N)C(=O)O
# Assay: physchem
# Procedure, shortened: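 3 mg of peptide treated with 100 μL portions of 200 mM phosphate buffer pH 7.4, sonicating/vortexing up to 1 min, with further buffer added until fully dissolved. Solubility then quantified by HPLC.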
SMILES,solubility (pH 7.4),"solubility (pH 7.4, aqueous buffer)"
CC[C@H](C)[C@H](NC(=O)[C@H](CO)NC(=O)[C@H](Cc1ccc(O)cc1)NC(=O)[C@H](CC(=O)O)NC(=O)[C@H](CO)NC(=O)[C@@H](NC(=O)[C@H](Cc1ccccc1)NC(=O)[C@@H](NC(=O)CNC(=O)[C@H](CCC(=O)O)NC(=O)C(C)(C)NC(=O)[C@@H](N)Cc1ccc(O)cc1)[C@@H](C)O)[C@@H](C)CC)C(=O)N[C@@H](C)C(=O)NC(C)(C)C(=O)N[C@@H](CC(=O)O)C(=O)N[C@@H](CCCCN)C(=O)N[C@@H](C)C(=O)N[C@@H](CCCCNC(=O)COCCOCCNC(=O)COCCOCCNC(=O)CC[C@H](NC(=O)CCCCCCCCCCCCCCCCC(=O)O)C(=O)O)C(=O)N[C@@H](CCC(N)=O)C(=O)N[C@@H](C)C(=O)N[C@@H](CC(=O)O)C(=O)N[C@@H](Cc1ccccc1)C(=O)N[C@H](C(=O)N[C@@H](CCC(=O)O)C(=O)N[C@@H](Cc1c[nH]c2ccccc12)C(=O)N[C@@H](CC(C)C)C(=O)N[C@@H](CC(C)C)C(=O)N[C@@H](C)C(=O)N[C@@H](CCC(N)=O)C(=O)N[C@@H](CCCNC(=N)N)C(=O)NCC(=O)O)C(C)C [Compound 165] (H-Y[Aib]EGTFISDYSIA[Aib]DKAK([AEEA-AEEA-γGlu-C18 diacid])QADFVEWLLAQRG-OH),≥ 15 mg/mL,≥ 30 mg/mL
CC[C@H](C)[C@H](NC(=O)[C@H](CO)NC(=O)[C@H](Cc1ccc(O)cc1)NC(=O)[C@H](CC(=O)O)NC(=O)[C@H](CO)NC(=O)[C@@H](NC(=O)[C@H](Cc1ccccc1)NC(=O)[C@@H](NC(=O)CNC(=O)[C@H](CCC(=O)O)NC(=O)C(C)(C)NC(=O)[C@@H](N)Cc1ccc(O)cc1)[C@@H](C)O)[C@@H](C)CC)C(=O)N[C@@H](C)C(=O)NC(C)(C)C(=O)N[C@@H](CC(=O)O)C(=O)N[C@@H](CCCCN)C(=O)N[C@H](C(=O)N[C@@H](CCCCNC(=O)COCCOCCNC(=O)COCCOCCNC(=O)CC[C@H](NC(=O)CCCCCCCCCCCCCCCCC(=O)O)C(=O)O)C(=O)N[C@@H](CCC(N)=O)C(=O)N[C@@H](C)C(=O)N[C@@H](CC(=O)O)C(=O)N[C@@H](Cc1ccccc1)C(=O)N[C@H](C(=O)N[C@@H](CCC(=O)O)C(=O)N[C@@H](Cc1c[nH]c2ccccc12)C(=O)N[C@@H](CC(C)C)C(=O)N[C@@H](CC(C)C)C(=O)N[C@@H](C)C(=O)N[C@@H](CCC(N)=O)C(=O)N[C@@H](CCCNC(=N)N)C(=O)NCC(=O)O)C(C)C)[C@@H](C)CC [Compound 166] (H-Y[Aib]EGTFISDYSIA[Aib]DKIK([AEEA-AEEA-γGlu-C18 diacid])QADFVEWLLAQRG-OH),≥ 15 mg/mL,≥ 30 mg/mL
CC[C@H](C)[C@H](NC(=O)[C@H](Cc1ccccc1)NC(=O)[C@@H](NC(=O)CNC(=O)[C@H](CCC(=O)O)NC(=O)C(C)(C)NC(=O)[C@@H](N)Cc1ccc(O)cc1)[C@@H](C)O)C(=O)N[C@@H](CO)C(=O)N[C@@H](CC(=O)O)C(=O)N[C@@H](Cc1ccc(O)cc1)C(=O)N[C@@H](CO)C(=O)N[C@H](C(=O)NC(C)(C)C(=O)N[C@@H](CC(C)C)C(=O)N[C@@H](CC(=O)O)C(=O)N[C@@H](CCCCN)C(=O)N[C@@H](C)C(=O)N[C@@H](C)C(=O)N[C@@H](CCC(N)=O)C(=O)N[C@@H](CCC(N)=O)C(=O)N[C@@H](CCCCNC(=O)COCCOCCNC(=O)COCCOCCNC(=O)CC[C@H](NC(=O)CC[C@H](NC(=O)CCCCCCCCCCCCCCCCC(=O)O)C(=O)O)C(=O)O)C(=O)N[C@@H](Cc1ccccc1)C(=O)N[C@H](C(=O)N[C@@H](CCC(=O)O)C(=O)N[C@@H](Cc1c[nH]c2ccccc12)C(=O)N[C@@H](CC(C)C)C(=O)N[C@@H](CC(C)C)C(=O)N[C@@H](C)C(=O)N[C@@H](CCC(N)=O)C(=O)N[C@@H](CCCNC(=N)N)C(=O)NCC(=O)O)C(C)C)[C@@H](C)CC [Compound 167] (H-Y[Aib]EGTFISDYSI[Aib]LDKAAQQK([AEEA-AEEA-γGlu-γGlu-C18 diacid])FVEWLLAQRG-OH),≥ 15 mg/mL,≥ 30 mg/mL
CC[C@H](C)[C@H](NC(=O)[C@H](Cc1ccccc1)NC(=O)[C@@H](NC(=O)CNC(=O)[C@H](CCC(=O)O)NC(=O)C(C)(C)NC(=O)[C@@H](N)Cc1ccc(O)cc1)[C@@H](C)O)C(=O)N[C@@H](CO)C(=O)N[C@@H](CC(=O)O)C(=O)N[C@@H](Cc1ccc(O)cc1)C(=O)N[C@@H](CO)C(=O)N[C@H](C(=O)NC(C)(C)C(=O)N[C@@H](CC(C)C)C(=O)N[C@@H](CC(=O)O)C(=O)N[C@@H](CCCCN)C(=O)N[C@@H](C)C(=O)N[C@@H](C)C(=O)N[C@@H](CCC(N)=O)C(=O)N[C@@H](C)C(=O)N[C@@H](CCCCNC(=O)COCCOCCNC(=O)COCCOCCNC(=O)CC[C@H](NC(=O)CC[C@H](NC(=O)CCCCCCCCCCCCCCCCC(=O)O)C(=O)O)C(=O)O)C(=O)N[C@@H](Cc1ccccc1)C(=O)N[C@H](C(=O)N[C@@H](CCC(=O)O)C(=O)N[C@@H](Cc1c[nH]c2ccccc12)C(=O)N[C@@H](CC(C)C)C(=O)N[C@@H](CC(C)C)C(=O)N[C@@H](C)C(=O)N[C@@H](CCC(N)=O)C(=O)N[C@@H](CCCNC(=N)N)C(=O)NCC(=O)O)C(C)C)[C@@H](C)CC [Compound 168] (H-Y[Aib]EGTFISDYSI[Aib]LDKAAQAK([AEEA-AEEA-γGlu-γGlu-C18 diacid])FVEWLLAQRG-OH),≥ 15 mg/mL,≥ 30 mg/mL
CC[C@H](C)[C@H](NC(=O)[C@H](Cc1ccccc1)NC(=O)[C@@H](NC(=O)CNC(=O)[C@H](CCC(=O)O)NC(=O)C(C)(C)NC(=O)[C@@H](N)Cc1ccc(O)cc1)[C@@H](C)O)C(=O)N[C@@H](CO)C(=O)N[C@@H](CC(=O)O)C(=O)N[C@@H](Cc1ccc(O)cc1)C(=O)N[C@@H](CO)C(=O)N[C@H](C(=O)NC(C)(C)C(=O)N[C@@H](CC(C)C)C(=O)N[C@@H](CC(=O)O)C(=O)N[C@@H](CCCCN)C(=O)N[C@@H](C)C(=O)N[C@@H](CCCCNC(=O)COCCOCCNC(=O)COCCOCCNC(=O)CC[C@H](NC(=O)CCCCCCCCCCCCCCCCC(=O)O)C(=O)O)C(=O)N[C@@H](CCC(N)=O)C(=O)N[C@@H](CCC(N)=O)C(=O)N[C@@H](CC(=O)O)C(=O)N[C@@H](Cc1ccccc1)C(=O)N[C@H](C(=O)N[C@@H](CCC(=O)O)C(=O)N[C@@H](Cc1c[nH]c2ccccc12)C(=O)N[C@@H](CC(C)C)C(=O)N[C@@H](CC(C)C)C(=O)N[C@@H](C)C(=O)N[C@@H](CCC(N)=O)C(=O)N[C@@H](CCCNC(=N)N)C(=O)NCC(=O)O)C(C)C)[C@@H](C)CC [Compound 169] (H-Y[Aib]EGTFISDYSI[Aib]LDKAK([AEEA-AEEA-γGlu-C18 diacid])QQDFVEWLLAQRG-OH),≥ 15 mg/mL,≥ 30 mg/mL
CC[C@H](C)[C@H](NC(=O)[C@H](Cc1ccccc1)NC(=O)[C@@H](NC(=O)CNC(=O)[C@H](CCC(=O)O)NC(=O)C(C)(C)NC(=O)[C@@H](N)Cc1ccc(O)cc1)[C@@H](C)O)C(=O)N[C@@H](CO)C(=O)N[C@@H](CC(=O)O)C(=O)N[C@@H](Cc1ccc(O)cc1)C(=O)N[C@@H](CO)C(=O)N[C@H](C(=O)NC(C)(C)C(=O)N[C@@H](CC(C)C)C(=O)N[C@@H](CC(=O)O)C(=O)N[C@@H](CCCCN)C(=O)N[C@@H](C)C(=O)N[C@@H](CCCCNC(=O)COCCOCCNC(=O)COCCOCCNC(=O)CC[C@H](NC(=O)CCCCCCCCCCCCCCCCC(=O)O)C(=O)O)C(=O)N[C@@H](CCC(N)=O)C(=O)N[C@@H](CCC(N)=O)C(=O)N[C@@H](CC(=O)O)C(=O)N[C@@H](Cc1ccccc1)C(=O)N[C@H](C(=O)N[C@@H](CC(N)=O)C(=O)N[C@@H](Cc1c[nH]c2ccccc12)C(=O)N[C@@H](CC(C)C)C(=O)N[C@@H](CC(C)C)C(=O)N[C@@H](C)C(=O)N[C@@H](CCC(N)=O)C(=O)N[C@@H](CCCNC(=N)N)C(=O)NCC(=O)O)C(C)C)[C@@H](C)CC [Compound 170] (H-Y[Aib]EGTFISDYSI[Aib]LDKAK([AEEA-AEEA-γGlu-C18 diacid])QQDFVNWLLAQRG-OH),≥ 15 mg/mL,≥ 30 mg/mL
